Data published in patent US20010005752A1, “Fluorescent dyes (AIDA) for solid phase and solution phase screening” (priority 1998, published 2001).

Experiments:
[1] = in acetonitrile; cited from earlier work
[2] = in acetonitrile; cited from earlier work; remark: listed apart in the source
avidin [3] = biological target: T1, avidin (Gallus gallus, UniProt P02701); assay: FRET / quenching with unlabelled avidin (tryptophan donor, AIDA acceptor); assay type: binding; settings: unlabelled avidin, conjugate as acceptor
T1 construct: purchased Molecular Probes (Eugene, Oreg.) A-2767
T1 sequence (P02701 25-152): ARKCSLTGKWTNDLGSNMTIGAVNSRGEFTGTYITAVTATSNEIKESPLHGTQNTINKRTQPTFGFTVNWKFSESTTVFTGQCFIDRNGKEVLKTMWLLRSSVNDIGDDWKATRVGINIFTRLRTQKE
Procedure: (§1) For solubility reasons, 4e is spectroscopically characterized in THF. All complexation reactions and fluorescence resonance energy transfer measurements are performed in PBS/5% DMSO at 25° C., unless indicated otherwise.
(§2) Spectral bandwidths are set to 8 and 16 nm for excitation and emission, respectively. Measurements are performed at 25° C. in a 750 μL quartz cuvette (10 mm optical pathlength) without stirring after initial mixing. A concentration of 50 nM of 9 or 11 is used for complexation with 1 μM of (fluorescent) avidin. […] All titrations are performed in magic angle setting, with the emission wavelength set to […] in experiments where the indazole is the acceptor, and with an excitation spectrum recorded from 250 nm to 360 nm. In experiments where indazole is used as donor and Lucifer Yellow or BODIPY FL is the acceptor, the excitation wavelength is set to 338 nm or 325 nm. The fluorescence emission is collected between 360 nm and 700 nm. The spectra are corrected for Raman scattering from the PBS solution, for dilution, and for inner filter effects due to protein additions, The signal is adjusted for lamp intensity changes by ratio mode detection with a Rhodamine B quantum counter in the reference channel. A WG 360 emission cutoff filter is used for straylight reduction. Data are collected in 2 nm increments with 1 second integration time.
An emission wavelength at 480 nm was chosen because the tryptophan fluorescence of avidin had almost reached the baseline level at this emission energy, resulting in only minor avidin fluorescence contribution between 250 and 370 nm. […] This quenching effect can be attributed to all radiative and non-radiative processes occurring to 11 in the vicinity of the tryptophans in the binding cleft. Corresponding to the ratio of the negative and positive areas under the fluorescence difference curve (black), 62% of this total quenching effect is fluorescence resonance energy transfer. From 250 to 305 nm the enhancement of the tryptophan and tyrosine fluorescence intensity is 72% based on the sum of 11 and avidin.

avidin-BODIPY-FL = biological target: T2, avidin-BODIPY-FL (Gallus gallus, UniProt P02701); assay: FRET / quenching with avidin-BODIPY-FL (AIDA donor, BODIPY-FL acceptor); assay type: binding
T2 construct: BODIPY FL (chemical fluorescent label, about 3.3 per avidin); purchased Molecular Probes (Eugene, Oreg.) A-2641
T2 sequence (P02701 25-152): as above
Procedure: as §1, §2
In these experiments 11 was used as donor and BODIPY-FL as acceptor. At an excitation wavelength of 338 nm the emission of 11 between 360 nm and 516 nm is strongly quenched by approximately 80% in the complexed form. The standard definition for energy transfer efficiency, E=1−Fda/Fd, would result in E≅0.8. […] The approximately 80% reduction in signal intensity of 11 can be caused either by FRET or from local quenching of the fluorescence of 11 mainly by ground state interactions. […] Due to the broad fluorescence emission of 11 in water the detection wavelength can be shifted up to 500 nm which is at lower energy than most background fluorescence signals from small chemical compounds.

[4] = UV-Vis absorption spectroscopy; assay type: physicochemical; settings: acetonitrile/2% DMSO
Procedure: UV-Vis absorption spectroscopy is performed on a Cary 1E spectrophotometer. […]
[…] […] From each stock solution, 5 dilutions with concentrations of 2.5 μm, 10 μM, 17 μM, 25 μm and 35 μM are made. UV-spectra of each dilution are recorded from 200 to 400 nm, using a quarz cuvette with a pathlength of 1 cm. […] A linear fit is carried out for each series of measurements. The extinction coefficient ε at 337 nm is given by the slope of the linear regression.

[5] = Steady-state fluorescence spectroscopy (excitation and emission spectra); assay type: physicochemical; settings: acetonitrile/2% DMSO
Procedure: Steady-state fluorescence measurements are performed on a SLM 8000C spectro-fluorometer equipped with JD490 photomultipliers and a 450 W Xenon Arclamp (SLM Instruments, Urbana, Ill.).
[…] Spectral bandwidths are set to 1 and 4 nm for excitation and emission, respectively. Spectra are recorded in single photon counting mode. Changes in lamp intensity are corrected with a quantum counter in the reference channel, measured in slow mode. Gain is set to x 100 with a high voltage (HV) of 640 V. Integration time is 2 seconds. For excitation spectra measurements, the emission wavelength is set to 397 nm and the sample is excited from 200 to 400 nm. For recording emission spectra, the sample is excited at 342 nm and the emission is recorded from 350 to 540 nm. The data are averaged over two scans.

avidin [6] = biological target: T1, avidin; assay: Time-resolved fluorescence depolarisation on binding of avidin; settings: PBS/5% DMSO
Procedure: Picosecond time-resolved fluorescence measurements are recorded according to the single photon counting technique [Lakowicz, 1983 p 52-93, 112-153, 156-185]. An Ar^+-pumped Ti:Sapphire laser (model MIRA 900, Coherent, Santa Clara, USA) provided under mode-locked conditions ultrashort pulses (FWHM=150 fs) with a frequency of 75 MHz. To reduce the repetition rate to 4.7 MHz, a pulse picker (model 9200, Coherent, Santa Clara, USA) is inserted into the beam. […] Fluorescence photons are collected in a Spex 1681 single grating monochromator (Spex, Edison, USA) and detected with the Hamamatsu R3809U microchannel plate (Hamamatsu, Shimokanzo, Japan). […] The voltage values which correspond to the time passed between excitation and emission of a fluorescence photon in a single experiment are stored in the Spectrum Master 921 (Ortec, Oak Ridge, USA) which is connected to the multichannel emulation program Maestro (Ortec, Oak Ridge, USA). […]
c. Binding of AIDA conjugate 8 to avidin-BODIPY detected by rotational diffusion and energy transfer: Energy transfer between the indazole moiety in 8 and the 3.3 BODIPY-FL lables on avidin by time-resolved fluorescence spectroscopy.
Binding of avidin labelled with BODIPY-FL to 8 creates a further depolarisation mode for the indazole fluorescence: Fluorescence resonance energy transfer between the indazole moiety of 8 and the BODIPY-FL labels. […]

Row | SMILES | maximum of fluorescence emission [1] [nm] | maximum of absorption [2] [nm] | enhanced energy transfer (tryptophan/indazole) (avidin [3]) [%] | increase in indazole fluorescence emission on avidin complexation (avidin [3]) [%] | quenching of indazole (donor) emission in complex with avidin-BODIPY-FL (avidin-BODIPY-FL; 50 nM conjugate, 1 μM avidin-BODIPY-FL, excitation 338 nm, emission 360-516 nm) [%] | fluoresence energy transfer (acceptor sensitization) (avidin-BODIPY-FL; avidin-BODIPY complex) [%] | Absorption λmax [4] [nm] | ε (at absorption λmax) [4] [M⁻¹ cm⁻¹] | Emission range in parenthesis [5] | Emission λmax [5] [nm] | Excitation range in parenthesis [5] | Excitation λmax [5] [nm] | fluorescence depolarisation on binding of avidin (unlabelled) (avidin [6])
1 | c1ccc2[nH]ncc2c1 [1H-indazole] | 298 | 294 |  |  |  |  |  |  |  |  |  |  | 
2 | NC(=O)c1ccc(-n2nc(-c3ccc(C(=O)NCCCNC(=O)CCCCC4SCC5NC(=O)NC54)cc3)c3ccccc32)cc1 (stereo not drawn) [compound 8, 3′(+)-4-{3-[4-(3′-Biotinoylaminopropyl)-aminocarbonyl]phenyl-1H-indazol-1-yl}-benzoic acid Amide] |  |  | 120 | 26 | 93.5 | 48 | 331 | 32158 | 360-480 nm | 394 | 310-360 nm | 332 | slower depolarisation
